The values that follow come from patent publication US7432392B2, “Ester derivatives and medical use thereof” (Japan Tobacco Inc., priority 2003, dated 2008).

Each structure is given as a SMILES string.

The assay addresses T1, Microsomal triglyceride transfer protein (MTP) from bovine liver (Bos taurus, UniProt P55156).
T1 construct: the purified MTP was used for the test; from tissue; host or cells: bovine liver
T1 sequence (P55156 12-887): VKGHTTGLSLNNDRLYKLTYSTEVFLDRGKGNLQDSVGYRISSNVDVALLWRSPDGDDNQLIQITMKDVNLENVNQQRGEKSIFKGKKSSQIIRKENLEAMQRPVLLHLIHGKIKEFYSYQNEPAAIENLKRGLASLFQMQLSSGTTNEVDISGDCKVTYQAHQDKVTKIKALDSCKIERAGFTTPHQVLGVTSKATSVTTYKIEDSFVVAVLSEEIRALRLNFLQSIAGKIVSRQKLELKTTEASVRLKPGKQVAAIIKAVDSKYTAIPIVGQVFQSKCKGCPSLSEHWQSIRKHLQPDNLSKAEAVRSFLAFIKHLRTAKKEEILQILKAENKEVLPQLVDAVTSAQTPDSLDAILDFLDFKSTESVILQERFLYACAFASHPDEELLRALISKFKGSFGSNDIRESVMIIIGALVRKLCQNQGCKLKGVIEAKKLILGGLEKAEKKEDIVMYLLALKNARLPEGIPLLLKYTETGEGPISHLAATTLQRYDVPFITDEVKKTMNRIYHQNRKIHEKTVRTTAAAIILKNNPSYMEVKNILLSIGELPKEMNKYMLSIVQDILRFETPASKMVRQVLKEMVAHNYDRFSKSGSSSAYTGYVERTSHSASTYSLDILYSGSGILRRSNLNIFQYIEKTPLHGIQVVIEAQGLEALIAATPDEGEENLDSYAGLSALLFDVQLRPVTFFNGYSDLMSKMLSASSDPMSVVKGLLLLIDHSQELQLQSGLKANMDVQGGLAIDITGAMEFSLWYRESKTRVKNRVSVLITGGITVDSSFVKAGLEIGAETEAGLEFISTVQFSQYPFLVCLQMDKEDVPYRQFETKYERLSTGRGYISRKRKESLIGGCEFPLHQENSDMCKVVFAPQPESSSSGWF
T1 sequence (P05307 21-510 partner): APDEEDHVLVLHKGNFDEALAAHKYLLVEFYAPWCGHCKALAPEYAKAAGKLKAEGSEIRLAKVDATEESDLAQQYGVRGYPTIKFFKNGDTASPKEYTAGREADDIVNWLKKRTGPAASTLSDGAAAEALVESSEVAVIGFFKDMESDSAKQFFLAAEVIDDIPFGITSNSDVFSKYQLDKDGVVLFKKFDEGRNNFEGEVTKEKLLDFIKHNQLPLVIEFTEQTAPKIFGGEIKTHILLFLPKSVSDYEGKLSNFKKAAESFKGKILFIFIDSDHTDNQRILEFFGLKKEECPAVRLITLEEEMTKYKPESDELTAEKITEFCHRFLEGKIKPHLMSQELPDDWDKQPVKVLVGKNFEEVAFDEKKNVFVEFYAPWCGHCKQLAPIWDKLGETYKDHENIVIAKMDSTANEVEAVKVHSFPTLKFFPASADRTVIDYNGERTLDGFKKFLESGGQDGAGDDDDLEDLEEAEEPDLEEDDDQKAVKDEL
Put plainly: Inhibition of interliposomal triglyceride (TG) transfer activity by MTP. The format is biochemical. The note with it: MTP-mediated TG transfer between donor and acceptor liposomes, 37° C., one hour. How it is done: Microsomal triglyceride transfer protein (MTP) from bovine liver was partially purified in such a way described below. A buffer (50 mM Tris, 250 mM sucrose, 1 mM EDTA, 0.02% NaN3 (pH 7.4)) for making a homogenate preparation was added to bovine liver, and the mixture was homogenated under ice-cooling, then centrifuged at 10,000×g (4° C., 30 minutes) The supernatant was adjusted to pH 5.1 with hydrochloric acid, and stirred for 30 minutes. The solution was further centrifuged at 10,000×g (4° C., 30 minutes), and 1 mM Tris buffer was added to the precipitated residue, and the mixture was adjusted to pH 8.6 with sodium hydroxide. After addition of 2.7 M ammonium sulfate solution, the mixture was stirred for 30 minutes, then centrifuged at 10,000×g (4° C., 40 minutes). The resulting supernatant was served as a crude extraction fraction of MTP and stored at −80° C. under freezing. In its practical use, the crude extraction fraction of MTP was purified by column chromatography on diethylaminoethyl (DEAE) Sepharose using FPLC (Fast Performance Liquid Chromatography) system, and the purified MTP was used for the test.
Small unilamellar-vesicle (SUV) liposome (donor, 0.25 mol % triolein, 5 mol % cardiolipin) labeled with ^14C-triolein and non-labeled SUV liposome (acceptor, 0.25 mol % triolein) were prepared. A fixed amount of donor and acceptor, and MTP were mixed with a sample dissolved in DMSO or with DMSO. The mixture was incubated in a 15 mM Tris hydrochloride buffer (pH 7.4) containing 40 mM sodium chloride, 1 mM EDTA (ethylenediaminetetraacetic acid), 0.02% NaN3 and 0.5% bovine serum albumin at 37° C. for one hour. After completion of the incubation, a suspension of DEAE cellulose (50% v/v) in 15 mM Tris hydrochloride buffer (pH 7.4) was added to the above solution, and the mixture was centrifuged to separate the donor and the acceptor. The radioactivity in the acceptor was measured by liquid scintillation counter. The value obtained by subtracting the radioactivity in the blank from the amount of radioactivity in the acceptor of a DMSO group was determined as MTP-mediated TG transfer activity, and it was compared with the value obtained by subtracting the radioactivity in the blank from the radioactivity in a sample group. The blank was prepared by adding 15 mM Tris-HCl buffer (pH 7.4) in place of MTP. Inhibition rate (%) was calculated from the values obtained according to the following equation.
Inhibition rate (%)=100×(1 minus ((radioactivity of sample group minus radioactivity of blank group)/(radioactivity of DMSO group minus radioactivity of blank group))). 50% Inhibition rate (IC50) was determined on the basis of the above equation.
With `CCOC(=O)C(COC(=O)Cc1ccc(NC(=O)c2ccc(C)cc2-c2ccc(C(F)(F)F)cc2)c(OC(C)=O)c1)(C(=O)OCC)c1ccccc1` [Example 1-5], the 50% inhibitory concentration (IC50) is less than 10 nM. The figure for `CCOC(=O)C(COC(=O)Cc1ccc(NC(=O)c2ccc(C)cc2-c2ccc(C(F)(F)F)cc2)c(OC(=O)CC)c1)(C(=O)OCC)c1ccccc1` [Example 1-6] is less than 10 nM; for `CCCC(=O)Oc1cc(CC(=O)OCC(C(=O)OCC)(C(=O)OCC)c2ccccc2)ccc1NC(=O)c1ccc(C)cc1-c1ccc(C(F)(F)F)cc1` [Example 1-7] it is less than 10 nM; for `CCOC(=O)C(COC(=O)Cc1ccc(N(C)C(=O)c2ccccc2-c2ccc(C(F)(F)F)cc2)c(OC(C)=O)c1)(C(=O)OCC)c1ccccc1` [Example 1-8] it is less than 10 nM. Next, `CCOC(=O)C(COC(=O)Oc1cc(C(=O)N(C)C)c(NC(=O)c2ccccc2-c2ccc(C(F)(F)F)cc2)cc1F)(C(=O)OCC)c1ccccc1` [Example 2, 2-{5-Dimethylcarbamoyl-2-fluoro-4-[(4′-trifluoromethyl-biphenyl-2-carbonyl)amino]phenoxycarbonyloxymethyl}-2-phenylmalonic acid diethyl ester]: less than 10 nM.

Consider `CCOC(=O)C(COC(=O)Oc1ccc2c(c1)N(C(C)C)C(=O)CN2C(=O)c1ccccc1-c1ccc(C(F)(F)F)cc1)(C(=O)OCC)c1ccccc1` [Example 2-2, 2-[4-Isopropyl-3-oxo-1-(4′-trifluoromethylbiphenyl-2-carbonyl)-1,2,3,4-tetrahydroquinoxalin-6-yloxycarbonyloxymethyl]-2-phenylmalonic acid diethyl ester], for which the concentration for half-maximal inhibition (IC50) is less than 10 nM. In turn, `CCOC(=O)C(COC(=O)Oc1ccc2c(c1)CCN2C(=O)c1ccccc1-c1ccc(C(F)(F)F)cc1)(C(=O)OCC)c1ccccc1` [Example 2-3] gave an IC50 of 10 to 100 nM. Next, `CCOC(=O)C(COC(=O)Oc1ccc(NC(=O)c2ccccc2-c2ccc(C(F)(F)F)cc2)c(C(=O)N(C)C)c1)(C(=O)OCC)c1ccccc1` [Example 2-4]: less than 10 nM; `CCOC(=O)C(COC(=O)OCc1ccc(NC(=O)c2ccccc2-c2ccc(C(F)(F)F)cc2)c(C(=O)N(C)C)c1)(C(=O)OCC)c1ccccc1` [Example 2-5]: less than 10 nM. Compound `CCOC(=O)C(COC(=O)Oc1cc(C(=O)N(C)C)c(NC(=O)c2ccccc2-c2ccc(C(F)(F)F)cc2)cc1Cl)(C(=O)OCC)c1ccccc1` [Example 2-6] came in with an IC50 of less than 10 nM. On to `CCOC(=O)C(COC(=O)Oc1ccc(NC(=O)c2ccccc2-c2ccc(C(F)(F)F)cc2)c(C(=O)N(C)C)c1)(C(=O)OCC)c1cccs1` [Example 2-7], for which the IC50 is less than 10 nM. The compound `CCOC(=O)C(COC(=O)Oc1ccc(NC(=O)c2ccc(C)cc2-c2ccc(C(F)(F)F)cc2)c(C(=O)N(C)C)c1)(C(=O)OCC)c1ccccc1` [Example 2-8] displayed a concentration for half-maximal inhibition (IC50) of less than 10 nM. For the compound `CCOC(=O)C(COC(=O)Oc1ccc(NC(=O)c2ccc(C)cc2-c2ccc(C(F)(F)F)cc2)c(C(=O)N(C)C)c1)(C(=O)OCC)c1cccs1` [Example 2-9], the half-inhibitory concentration (IC50) was less than 10 nM.

For the compound `CCNC(=O)C(COC(=O)Oc1ccc(NC(=O)c2ccccc2-c2ccc(C(F)(F)F)cc2)c(C(=O)N(C)C)c1)(C(=O)NCC)c1ccccc1` [Example 2-10], the half-maximal inhibitory concentration (IC50) is less than 10 nM. In the case of `CCNC(=O)C(COC(=O)Oc1cc(C(=O)N(C)C)c(NC(=O)c2ccccc2-c2ccc(C(F)(F)F)cc2)cc1F)(C(=O)NCC)c1ccccc1` [Example 2-11], the half-maximal inhibitory concentration (IC50) fell in the range of 100 to 1000 nM. Turning to `CCOC(=O)C(COC(=O)Oc1ccc(NC(=O)c2ccccc2-c2ccc(C(F)(F)F)cc2)c(C(=O)N(C)CC)c1)(C(=O)OCC)c1ccccc1` [Example 2-12], the half-inhibitory concentration (IC50) was less than 10 nM. `CCCN(C)C(=O)c1cc(OC(=O)OCC(C(=O)OCC)(C(=O)OCC)c2ccccc2)ccc1NC(=O)c1ccccc1-c1ccc(C(F)(F)F)cc1` [Example 2-13] showed an IC50 of less than 10 nM. With `CCOC(=O)C(COC(=O)Oc1ccc(NC(=O)c2ccccc2-c2ccc(C(F)(F)F)cc2)c(C(=O)N2CCCC2)c1)(C(=O)OCC)c1ccccc1` [Example 2-14], the IC50 was less than 10 nM. With `CCOC(=O)C(COC(=O)Oc1cc(C(=O)N(C)C)c(NC(=O)c2ccccc2-c2ccc(C(F)(F)F)cc2)cc1C)(C(=O)OCC)c1ccccc1` [Example 2-15], the IC50 is less than 10 nM. The compound `CCOC(=O)C(COC(=O)Oc1ccc(NC(=O)c2ccc(C(F)(F)F)nc2-c2ccc(C(F)(F)F)cc2)c(C(=O)N(C)C)c1)(C(=O)OCC)c1ccccc1` [Example 2-16] came in with an IC50 of less than 10 nM. On to `CCOC(=O)C(COC(=O)Oc1ccc(N(C)C(=O)c2ccccc2-c2ccc(C(F)(F)F)cc2)c(C(=O)N(C)C)c1)(C(=O)OCC)c1ccccc1` [Example 2-17], for which the IC50 is 100 to 1000 nM. As for `CCOC(=O)C(COC(=O)Oc1ccc(NC(=O)c2ccccc2-c2ccc(C(F)(F)F)cc2)c(C(=O)N(C)C)c1)(C(=O)OCC)c1ccccn1` [Example 2-18], the IC50 is less than 10 nM. In the case of `CCOC(=O)C(COC(=O)Oc1ccc(NC(=O)c2ccc(C)nc2-c2ccc(C(F)(F)F)cc2)c(C(=O)N(C)C)c1)(C(=O)OCC)c1ccccc1` [Example 2-19], the IC50 was less than 10 nM. Regarding `CCOC(=O)C(COC(=O)Oc1c(F)cc(NC(=O)c2ccccc2-c2ccc(C(F)(F)F)cc2)c(C(=O)N(C)C)c1F)(C(=O)OCC)c1ccccc1` [Example 2-20], the 50% inhibitory concentration (IC50) fell in the range of 10 to 100 nM. For the compound `CCOC(=O)C(COC(=O)Oc1ccc(NC(=O)c2ccccc2-c2ccc(C(F)(F)F)cc2)c(C(=O)N(C)C)c1Cl)(C(=O)OCC)c1ccccc1` [Example 2-22], the concentration for half-maximal inhibition (IC50) is less than 10 nM. In the case of `CCOC(=O)C(COC(=O)Oc1ccc(NC(=O)c2ccc(C)nc2-c2ccc(C(F)(F)F)cc2)c(C(=O)N(C)C)c1)(C(=O)OCC)c1ccccn1` [Example 2-23], the IC50 is less than 10 nM. The compound `CCOC(=O)C(COC(=O)Oc1ccc(NC(=O)c2cccnc2-c2ccc(C(F)(F)F)cc2)c(C(=O)N(C)C)c1)(C(=O)OCC)c1ccccc1` [Example 2-25] registered an IC50 of less than 10 nM. Compound `CCOC(=O)C(COC(=O)Oc1c(F)cc(NC(=O)c2ccccc2-c2ccc(C(F)(F)F)cc2)c(C(=O)N(C)C)c1F)(C(=O)OCC)c1cccs1` [Example 2-26] yielded an IC50 of less than 10 nM.

`CCOC(=O)C(COC(=O)Oc1ccc(NC(=O)c2cnc(NC)nc2-c2ccc(C(F)(F)F)cc2)c(C(=O)N(C)C)c1)(C(=O)OCC)c1ccccc1` [Example 2-27] yielded a concentration for half-maximal inhibition (IC50) of 10 to 100 nM.
